From paper PMC9490041, “Determinants of affinity, specificity, and phase separation in a supramodule from Post-synaptic density protein 95” (iScience, 2022)
Read-outs that look alike come from different tables or passages of the source. Ends that are not written are not given here.

Assays:
[1] = target: PDZ3 (PSD-95) (Homo sapiens, UniProt P78352); assay: FP displacement (competition) of FITC-15 AA CRIPT by library peptide, IC50 and Ki
[2] = target: PSG G322A (PSD-95); assay: as above; conditions: for IC50: read-out: IC50 (µM), PSG G322A; for Ki: read-out: Ki (µM), PSG G322A
[3] = target: PSG (PSD-95); assay: as above; conditions: for IC50: read-out: IC50 (µM), PSG
[4] = target: PSG G322A G335A (PSD-95); assay: as above; conditions: for IC50: read-out: IC50 (µM), PSG G322A G335A
[5] = target: PSG G335A (PSD-95); assay: as above; conditions: for IC50: read-out: IC50 (µM), PSG G335A; for Ki: read-out: Ki (µM), PSG G335A
[6] = target: PSG F325A (PSD-95); assay: as above; conditions: for IC50: read-out: IC50 (µM), PSG F325A
[7] = test system: PDZ1-2 (PSD-95); assay: Isothermal titration calorimetry; format: binding; conditions: ITC
[8] = Ki (µM), PDZ3, FP displacement of FITC-15 AA CRIPT probe by PSD library peptide, protein PDZ3
[9] = FP displacement of FITC-15 AA CRIPT probe by PSD library peptide, protein PSG G322A
[10] = FP displacement of FITC-15 AA CRIPT probe by PSD library peptide, protein PSG (wild type)
[11] = read-out: Ki (µM), PSG, FP displacement of FITC-15 AA CRIPT probe by PSD library peptide, protein PSG (wild type)
[12] = FP displacement of FITC-15 AA CRIPT probe by PSD library peptide, protein PSG G322A G335A
[13] = read-out: Ki (µM), PSG G322A G335A, FP displacement of FITC-15 AA CRIPT probe by PSD library peptide, protein PSG G322A G335A
[14] = FP displacement of FITC-15 AA CRIPT probe by PSD library peptide, protein PSG G335A
[15] = FP displacement of FITC-15 AA CRIPT probe by library peptide
[16] = Ki (µM), PDZ3, FP displacement of FITC-15 AA CRIPT probe by acetylated PSD library peptide
[17] = Ki, FP displacement of 5 nM FITC-15 AA CRIPT by non-labeled acetylated peptide, room temperature, Ki from IC50, technical triplicates, PDZ3
[18] = FP displacement of FITC-15 AA CRIPT probe by acetylated PSD library peptide
[19] = FP displacement of 5 nM FITC-15 AA CRIPT by non-labeled acetylated peptide, room temperature, Ki from IC50, technical triplicates, PSG
[20] = read-out: Ki (µM), PSG, FP displacement of FITC-15 AA CRIPT probe by acetylated PSD library peptide
[21] = FP displacement of FITC-15 AA CRIPT probe by acetylated PSD library peptide (P-13 to P0 plus extra N-terminal Y)
[22] = read-out: Ki (µM), PSG G322A G335A, FP displacement of FITC-15 AA CRIPT probe by acetylated PSD library peptide

Chain of PDZ3 (PSD-95) (P78352 313-393 limits assumed): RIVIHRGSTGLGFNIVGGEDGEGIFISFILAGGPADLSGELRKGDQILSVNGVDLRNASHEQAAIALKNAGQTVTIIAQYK

Row | Compound | Ki [1, 8] | IC50 [2, 9] | Ki [2, 9] | IC50 [3, 10] | Ki [3, 11] | IC50 [4, 12] | Ki [4, 13] | IC50 [5, 14] | Ki [5, 14] | IC50 [1] | Ki [1, 17] | IC50 [2, 18] | Ki [2, 18] | Ki [3, 19] | IC50 [3, 18] | Ki [3, 20] | IC50 [4, 21] | Ki [4, 22] | IC50 [5, 18] | Ki [5, 18] | also measured
1 | CC[C@H](C)[C@H](NC(=O)[C@H](CO)NC(=O)[C@@H]1CCCN1C(=O)[C@H](CCSC)NC(=O)[C@H](CCCCN)NC(=O)[C@H](CCCCN)NC(=O)[C@H](Cc1ccc(O)cc1)NC(=O)[C@@H](NC(=O)[C@H](CCCNC(=N)N)NC(=O)[C@H](CCCNC(=N)N)NC(=O)[C@H](Cc1ccc(O)cc1)NC(C)=O)C(C)C)C(=O)N[C@@H](CCC(=O)O)C(=O)N[C@@H](CO)C(=O)N[C@@H](CC(=O)O)C(=O)N[C@H](C(=O)O)C(C)C [NMDE1] | 172 µM | 153 µM | 66 µM | 463 µM | 243 µM | 156 µM | 54 µM | 267 µM | 95 µM | – | – | – | – | – | – | – | – | – | – | – | –
2 | CC(=O)N[C@@H](Cc1ccc(O)cc1)C(=O)N[C@@H](CCC(=O)O)C(=O)N[C@@H](CCC(=O)O)C(=O)N[C@@H](CCC(=O)O)C(=O)N[C@@H](CC(C)C)C(=O)N[C@@H](CCC(N)=O)C(=O)N[C@@H](CC(=O)O)C(=O)N[C@@H](CO)C(=O)N[C@@H](CCCNC(=N)N)C(=O)N[C@H](C(=O)N[C@@H](Cc1ccc(O)cc1)C(=O)N[C@H](C(=O)N[C@@H](CO)C(=O)N[C@@H](CO)C(=O)N[C@@H](CC(C)C)C(=O)O)C(C)C)C(C)C [CAC1C] | 449 µM | 99 µM | 43 µM | 200 µM | 105 µM | 82 µM | 28 µM | 90 µM | 32 µM | – | – | – | – | – | – | – | – | – | – | – | –
3 | Ac-YSSPAQSVTPVQTVV [MTMR2] | – | – | – | – | – | – | – | – | – | 333 µM | – | – | – | – | – | – | – | – | – | – | Ki ([1]; Ki (µM), PDZ3, FP displacement of FITC-15 AA CRIPT probe by library peptide): 139 µM; IC50 [2, 15]: 295 µM; IC50 [3, 15]: 271 µM; Ki ([3]; read-out: Ki (µM), PSG, FP displacement of FITC-15 AA CRIPT probe by library peptide): 115 µM; Ki ([4]; FP displacement of 5 nM FITC-15 AA CRIPT by non-labeled acetylated peptide, room temperature, Ki from IC50, PSG G322A G335A): 95 µM; IC50 [5, 15]: 277 µM; Ki [5, 15]: 99 µM
4 | CC[C@H](C)[C@H](NC(=O)[C@H](Cc1ccccc1)NC(=O)[C@H](CO)NC(=O)[C@H](CCCNC(=N)N)NC(=O)[C@H](CCCCN)NC(=O)[C@@H]1CCCN1C(=O)[C@H](CCCCN)NC(=O)[C@H](C)NC(=O)[C@H](C)NC(=O)[C@@H](NC(=O)[C@H](Cc1ccc(O)cc1)NC(C)=O)[C@@H](C)O)C(=O)N[C@@H](CCC(=O)O)C(=O)N[C@@H](CO)C(=O)N[C@@H](CC(N)=O)C(=O)N[C@H](C(=O)O)C(C)C [TANC1] | – | – | – | – | – | – | – | – | – | 58 µM | < 75 µM | 21 µM | 9 µM | < 75 µM | 67 µM | 28 µM | 12 µM | 4 µM | 24 µM | 8.45 µM | Ki [1, 16]: 23 µM
5 | CC(=O)N[C@@H](Cc1ccc(O)cc1)C(=O)N[C@@H](CCC(N)=O)C(=O)N[C@@H](CCCNC(=N)N)C(=O)NCC(=O)N[C@@H](CO)C(=O)N[C@@H](Cc1ccccc1)C(=O)N1CCC[C@H]1C(=O)N1CCC[C@H]1C(=O)N[C@@H](Cc1c[nH]c2ccccc12)C(=O)N[C@H](C(=O)N[C@@H](CCC(N)=O)C(=O)N[C@@H](CCC(N)=O)C(=O)N[C@H](C(=O)N[C@@H](CCCNC(=N)N)C(=O)N[C@H](C(=O)O)C(C)C)[C@@H](C)O)C(C)C [SYNGAP⍺1] | – | – | – | – | – | – | – | – | – | – | – | 1.31 µM | 0.4 µM | < 75 µM | 4.24 µM | 0.913 µM | 0.922 µM | 0.243 µM | 1.12 µM | 0.24 µM | IC50 [6, 18]: 8 µM
6 | CC[C@H](C)[C@H](NC(=O)[C@H](CCCCN)NC(=O)[C@@H]1CCCN1C(=O)[C@H](CC(C)C)NC(=O)[C@H](CCCNC(=N)N)NC(=O)[C@H](Cc1c[nH]cn1)NC(=O)[C@H](CO)NC(=O)CNC(=O)[C@H](CC(=O)O)NC(=O)[C@H](Cc1ccc(O)cc1)NC(C)=O)C(=O)N[C@@H](CCCCN)C(=O)N[C@@H](CCC(=O)O)C(=O)N[C@H](C(=O)N[C@H](C(=O)N[C@H](C(=O)O)C(C)C)[C@@H](C)O)[C@@H](C)O [FRPD4] | – | 3.4 µM | 1.33 µM | 6 µM | 2.43 µM | 2.47 µM | 0.777 µM | 2.55 µM | 0.753 µM | – | – | – | – | < 75 µM | – | – | – | – | – | – | IC50 ([6]; FP displacement of FITC-15 AA CRIPT probe by PSD library peptide, protein PSG F325A): 18 µM; Ki ([6]; read-out: Ki (µM), PSG F325A, FP displacement of FITC-15 AA CRIPT probe by PSD library peptide, protein PSG F325A): 9 µM
7 | FL CC ADGRB1: expressed full-length coiled-coil C-terminal part of ADGRB1, residues 1,471–1,584 | – | – | – | – | – | – | – | – | – | – | – | – | – | – | – | – | – | – | – | – | Higher affinity for PDZ1-2 in comparison with PSG WT [7]: 3 fold
8 | CC[C@H](C)[C@H](NC(=O)[C@H](CO)NC(=O)[C@H](CCC(N)=O)NC(=O)[C@H](CCCNC(=N)N)NC(=O)[C@H](CCCCN)NC(=O)[C@H](CO)NC(=O)[C@H](CC(=O)O)NC(=O)[C@@H]1CCCN1C(=O)[C@H](Cc1ccc(O)cc1)NC(C)=O)C(=O)N[C@@H](CC(C)C)C(=O)N[C@@H](Cc1ccccc1)C(=O)N[C@@H](CO)C(=O)N[C@H](C(=O)N[C@@H](CCC(=O)O)C(=O)N[C@H](C(=O)O)C(C)C)[C@@H](C)O [BCR] | – | – | – | – | – | – | – | – | – | – | < 75 µM | 27 µM | 12 µM | < 75 µM | 110 µM | 46 µM | 21 µM | 7 µM | 33 µM | 12 µM | Ki [1, 16]: 42 µM
9 | CC(=O)N[C@@H](Cc1ccc(O)cc1)C(=O)N[C@@H](Cc1c[nH]cn1)C(=O)N1CCC[C@H]1C(=O)N[C@@H](Cc1c[nH]cn1)C(=O)N1CCC[C@H]1C(=O)N[C@@H](Cc1c[nH]cn1)C(=O)N1CCC[C@H]1C(=O)N[C@@H](Cc1c[nH]cn1)C(=O)N[C@@H](CO)C(=O)N[C@@H](Cc1c[nH]cn1)C(=O)N[C@@H](CO)C(=O)N[C@H](C(=O)N[C@H](C(=O)N[C@@H](CCCNC(=N)N)C(=O)N[C@H](C(=O)O)C(C)C)[C@@H](C)O)[C@@H](C)O [NLGN1] | 72 µM | 56 µM | 24 µM | 118 µM | 61 µM | 22 µM | 7.42 µM | – | 9 µM | – | < 75 µM | – | – | < 75 µM | – | – | – | – | – | – | –
10 | CC(=O)N[C@@H](Cc1ccc(O)cc1)C(=O)N[C@@H](CC(N)=O)C(=O)N[C@@H](CO)C(=O)N[C@H](C(=O)N[C@@H](CC(N)=O)C(=O)N[C@@H](CC(C)C)C(=O)N1CCC[C@H]1C(=O)N[C@@H](Cc1c[nH]cn1)C(=O)NCC(=O)N[C@@H](Cc1c[nH]cn1)C(=O)N[C@@H](CO)C(=O)N[C@H](C(=O)N[C@H](C(=O)N[C@@H](CCCNC(=N)N)C(=O)N[C@H](C(=O)O)C(C)C)[C@@H](C)O)[C@@H](C)O)[C@@H](C)O [NLGNX] | – | – | – | – | – | – | – | – | – | 62 µM | < 75 µM | 72 µM | 31 µM | – | 184 µM | 78 µM | 43 µM | 15 µM | 39 µM | 14 µM | Ki [1, 16]: 40 µM
